Tests used:
[1] = target: T1, bovine complex I (Bos taurus, UniProt P03887+P17694+P42026); assay: Inhibition kinetics in bovine complex I proteoliposomes with ubiquinone-10 and AOX; assay type: biochemical; conditions: versus ubiquinone-10, reciprocal plots and kinetic modelling
T1 construct: Complex I from bovine heart were prepared; from tissue; host or cells: bovine heart mitochondria
Protocol: Complex I from bovine heart were prepared and used to make proteoliposomes as described previously ([17], [23], [58]). Briefly, liposomes were formed from 8 mg of phosphatidylcholine, 1 mg of phosphatidylethanolamine, and 1 mg of cardiolipin (bovine heart extracts from Avanti Polar Lipids), together with varying amounts of ubiquinone-10 (Sigma-Aldrich), in ~800 μl of 10 mM 3-morpholinopropane-1-sulfonic acid (Mops)-KOH (pH 7.5) and 50 mM KCl. Following extrusion through a 100 nm of Nuclepore polycarbonate membrane (Whatman), the liposomes were partially solubilized with 0.5% sodium cholate (Anatrace), and 0.2 mg of complex I was added for reconstitution. […] Complex I concentration and orientation were quantified using the NADH:APAD^+ activity assay as described previously ([17], [23], [58]). Phospholipid phase volumes were calculated as described previously ([17], [23], [58]) to determine the amount of phospholipid present and by assuming that 1 mg of phospholipid occupies ∼1 μl. Ubiquinone-10 contents were quantified by HPLC, by reference to a set of standard samples, using a Nucleosil 100-5C18 column and a Dionex Ultimate 3000 RS electrochemical detector as described previously ([17], [23], [58]). […] All catalytic activity assays were conducted at 32°C in 96-well plates using a Molecular Devices Spectramax 384 plus plate reader. […]

[2] = target: T2, complex I in mitochondrial membranes (Bos taurus, UniProt P03887+P17694+P42026); assay: NADH oxidation in bovine mitochondrial membranes; assay type: biochemical; conditions: B. taurus membranes 20 μg ml−1; ± SE
T2 construct: Complex I from bovine heart were prepared; from tissue; host or cells: bovine heart mitochondria
Protocol: All catalytic activity assays were conducted at 32°C in 96-well plates using a Molecular Devices Spectramax 384 plus plate reader. Catalysis was initiated by addition of 200 μM NADH and monitored at 340 and 380 nm (ε340–380 = 4.81 mM^−1 cm^−1). Linear rates were measured for all assays, inhibitors were added from dimethyl sulfoxide stock solutions as required, and inhibitor-insensitive rates (using either 1 μM piericidin A or 1.4 μM IACS-2858) were subtracted from each measured rate. Membrane samples were prepared as described previously ([17], [20], [59], [60]), diluted to 20 μg ml^−1 in 10 mM tris-SO4 (pH 7.5) and 250 mM sucrose, and supplemented with 3 μM horse heart cytochrome c (except for P. denitrificans, for which the activity is unaffected by the addition). Mouse, bovine, and yeast (Y. lipolytica) complex I were purified as described previously ([17], [20], [59]); diluted to 0.5 nM in 20 mM tris-HCl (pH 7.5), 0.15% asolectin, and 0.15% CHAPS; and assayed using either 200 μM dQ or 200 μM ubiquinone-1 (Sigma-Aldrich). Complex I was purified from P. denitrificans strain Pd1222 ([61]) and provided by O. D. Jarman (MRC Mitochondrial Biology Unit, University of Cambridge); it was assayed likewise but in 10 mM MES-HCl (pH 6.5), 25 mM NaCl, and 2 mM CaCl2. […]

Question: Which results are given for `CS(=O)(=O)C1CCN(c2cccc(Cn3cc(-c4nc(-c5ccc(OC(F)(F)F)cc5)no4)ccc3=O)c2)CC1` [IACS-2858, 1-(3-(4-(Methylsulfonyl)piperidin-1-yl)benzyl)-5-(3-(4-(trifluoromethoxy)phenyl)-1,2,4-oxadiazol-5-yl)pyridin-2(1H)-one]?
Answer: mode of inhibition [1]: competitive; IC50 [2]: 3.4 ± 0.3 nM
